Results taken from patent US7781565B2 (priority 2006, dated 2010).
“Also recorded” adds a separate entry of the source.

System: NCI-60 cell lines
Format: cell-based, human

## GRRVSLV
  Cell Line with which the peptide (and its tripeptide motif) is associated: SR Leukemia

## ELWASLG
  Cell Line (NCI-60 cell line the peptide is associated with): HT-29 Colon

## GSSRTFR
  Cell Line with which the peptide (and its tripeptide motif) is associated: A549-Lung

## APGRLGP
  Cell Line (NCI-60 cell line the peptide and its motif are associated with): OVCAR-4 Ovarian

## RAAVGAR
  Cell Line with which the peptide (and its tripeptide motif) is associated: H23-Lung

## GDCGLVG
  Cell Line (NCI-60 cell line the peptide and its motif are associated with): PC3 Prostate

## DGLVPVA
  Cell Line (NCI-60 cell line the peptide and its motif are associated with): IGROV1 Ovarian

## PFPARSS
  Cell Line with which the peptide (and its tripeptide motif) is associated: H23-Lung

## GLVRRVV
  Cell Line the peptide is associated with (peptide recovered from phage library selection on this NCI-60 cell line): CAIK-1 Renal

## EHYRLRS
  Cell Line (NCI-60 cell line the peptide is associated with): HT-29 Colon

## RKEALRV
  Cell Line the peptide is associated with (peptide recovered from phage library selection on this NCI-60 cell line): CAIK-1 Renal

## GGYWLRS
  Cell Line (NCI-60 cell line the peptide and its motif are associated with): M14 Melanoma

## MPGSSRP
  Cell Line the peptide is associated with (peptide recovered from phage library selection on this NCI-60 cell line): RXF393 Renal

## ANASGVR
  Cell Line (NCI-60 cell line the peptide and its motif are associated with): M14 Melanoma

## TDLAGLH
  Cell Line with which the peptide (and its tripeptide motif) is associated: RPMI-8226-Leukemia

## FFPAGGP
  Cell Line with which the peptide (and its tripeptide motif) is associated: EKVX-Lung

## AVWGGLG
  Cell Line with which the peptide (and its tripeptide motif) is associated: H226-Lung

## ASEGGRA
  Cell Line (NCI-60 cell line the peptide and its motif are associated with): SK-OV-3-3 Ovarian

## PGGGRGR
  Cell Line the peptide is associated with (peptide recovered from phage library selection on this NCI-60 cell line): UO31 Renal

## AASPHPG
  Cell Line the peptide is associated with (peptide recovered from phage library selection on this NCI-60 cell line): T-47D Breast

## YTGSSPS
  Cell Line (NCI-60 cell line the peptide and its motif are associated with): SK-OV-3-3 Ovarian

## GVYWLRS
  Cell Line the peptide is associated with (peptide recovered from phage library selection on this NCI-60 cell line): TK-10 Renal

## GATGVSS
  Cell Line (NCI-60 cell line the peptide and its motif are associated with): OVCAR-8 Ovarian

## RHGVRSK
  Cell Line (NCI-60 cell line the peptide is associated with): SF-295 CNS

## LFAVAAV
  Cell Line with which the peptide (and its tripeptide motif) is associated: Hop-62-Lung

## GGVAGVS
  Cell Line with which the peptide (and its tripeptide motif) is associated: A549-Lung

## LGGAAVR
  Cell Line the peptide is associated with (peptide recovered from phage library selection on this NCI-60 cell line): T-47D Breast

## GVLARVT
  Cell Line with which the peptide (and its tripeptide motif) is associated: CCRF-CEM Leukemia

## SLGLGGL
  Cell Line (NCI-60 cell line the peptide and its motif are associated with): OVCAR-5 Ovarian

## IGASLLG
  Cell Line (NCI-60 cell line the peptide is associated with): SF-268 CNS

## GGAGRGA
  Cell Line (NCI-60 cell line the peptide and its motif are associated with): OVCAR-4 Ovarian

## GEVGLGV
  Cell Line (NCI-60 cell line the peptide is associated with): HT-29 Colon

## RLWGSVV
  Cell Line (NCI-60 cell line the peptide and its motif are associated with): SK-OV-3-3 Ovarian

## ATGRVLG
  Cell Line with which the peptide (and its tripeptide motif) is associated: Molt-4-Leukemia

## ARGNVRF
  Cell Line the peptide is associated with (peptide recovered from phage library selection on this NCI-60 cell line): MDA-MB-231 Breast

## VGRAGGL
  Cell Line the peptide is associated with (peptide recovered from phage library selection on this NCI-60 cell line): MDA-MB-231 Breast

## VHRVSGG
  Cell Line with which the peptide (and its tripeptide motif) is associated: RPMI-8226-Leukemia

## HAAHGLV
  Cell Line with which the peptide (and its tripeptide motif) is associated: Hop-92-Lung

## GSVLPVL
  Cell Line (NCI-60 cell line the peptide and its motif are associated with): SK-OV-3-3 Ovarian

## AGGSLGS
  Cell Line with which the peptide (and its tripeptide motif) is associated: H23-Lung

## PGVLREP
  Cell Line the peptide is associated with (peptide recovered from phage library selection on this NCI-60 cell line): A498 Renal

## PLAVGLV
  Cell Line (NCI-60 cell line the peptide is associated with): HCT-116 Colon

## GDRAVGL
  Cell Line the peptide is associated with (peptide recovered from phage library selection on this NCI-60 cell line): UO31 Renal

## GTLGGRV
  Cell Line (NCI-60 cell line the peptide is associated with): HT-29 Colon

## ELRRLLS
  Cell Line the peptide is associated with (peptide recovered from phage library selection on this NCI-60 cell line): TK-10 Renal

## LKLLSVP
  Cell Line (NCI-60 cell line the peptide is associated with): HT-29 Colon

## MPAGLGV
  Cell Line the peptide is associated with (peptide recovered from phage library selection on this NCI-60 cell line): RXF393 Renal

## GGLSPHR
  Cell Line with which the peptide (and its tripeptide motif) is associated: H460-Lung

## GLREVQD
  Cell Line the peptide is associated with (peptide recovered from phage library selection on this NCI-60 cell line): HS 578 T Breast

## VSGSGTA
  Cell Line (NCI-60 cell line the peptide and its motif are associated with): PC3 Prostate

## AIMGAGL
  Cell Line (NCI-60 cell line the peptide and its motif are associated with): OVCAR-8 Ovarian

## LGGRTIS
  Cell Line (NCI-60 cell line the peptide and its motif are associated with): DU-145 Prostate

## QVRRGVV
  Cell Line (NCI-60 cell line the peptide is associated with): HT-29 Colon

## ALPGGGR
  Cell Line (NCI-60 cell line the peptide and its motif are associated with): OVCAR-5 Ovarian

## GDRGVRG
  Cell Line (NCI-60 cell line the peptide and its motif are associated with): A498 Renal
  Cell Line the peptide is associated with (peptide recovered from phage library selection on this NCI-60 cell line): A498 Renal

## KSGLRPA
  Cell Line with which the peptide (and its tripeptide motif) is associated: EKVX-Lung

## GGGSGGG
  Cell Line (NCI-60 cell line the peptide and its motif are associated with): OVCAR-4 Ovarian

## AGSPLAK
  Cell Line with which the peptide (and its tripeptide motif) is associated: H23-Lung

## SRLSYRT
  Cell Line the peptide is associated with (peptide recovered from phage library selection on this NCI-60 cell line): TK-10 Renal

## SGVSVEG
  Cell Line with which the peptide (and its tripeptide motif) is associated: Hop-62-Lung

## RGGSPPV
  Cell Line the peptide is associated with (peptide recovered from phage library selection on this NCI-60 cell line): RXF393 Renal

## GSSACGA
  Cell Line (NCI-60 cell line the peptide is associated with): U251 CNS

## GSGGANL
  Cell Line (NCI-60 cell line the peptide and its motif are associated with): DU-145 Prostate

## WTERASA
  Cell Line (NCI-60 cell line the peptide is associated with): HCT-15 Colon

## FHIWGGR
  Cell Line the peptide is associated with (peptide recovered from phage library selection on this NCI-60 cell line): MDA-MB-231 Breast

## GGSKGSA
  Cell Line (NCI-60 cell line the peptide and its motif are associated with): UACC 257 Melanoma

## RGSHLVP
  Cell Line with which the peptide (and its tripeptide motif) is associated: CCRF-CEM Leukemia

## IGAASWF
  Cell Line the peptide is associated with (peptide recovered from phage library selection on this NCI-60 cell line): MCF-7 Breast

## VYYRLSA
  Cell Line with which the peptide (and its tripeptide motif) is associated: SR Leukemia

## LELGRLL
  Cell Line with which the peptide (and its tripeptide motif) is associated: HL-60-Leukemia

## GGSGELG
  Cell Line with which the peptide (and its tripeptide motif) is associated: H23-Lung

## VRSSGVL
  Cell Line (NCI-60 cell line the peptide and its motif are associated with): SK-OV-3-3 Ovarian

## AIRAGSD
  Cell Line with which the peptide (and its tripeptide motif) is associated: K-562-Leukemia

## RAAVSAI
  Cell Line with which the peptide (and its tripeptide motif) is associated: Molt-4-Leukemia

## SVVLAGS
  Cell Line (NCI-60 cell line the peptide is associated with): LOX-IMVI Melanoma

## VRLTGVR
  Cell Line (NCI-60 cell line the peptide and its motif are associated with): SK-OV-3-3 Ovarian

## MGSAVSL
  Cell Line with which the peptide (and its tripeptide motif) is associated: Hop-92-Lung

## RLSTFAG
  Cell Line (NCI-60 cell line the peptide is associated with): SNB-19 CNS; also recorded: SF-539 CNS

## YGESLLR
  Cell Line (NCI-60 cell line the peptide is associated with): SNB-75 CNS

## HGGRYRH
  Cell Line (NCI-60 cell line the peptide and its motif are associated with): UACC 257 Melanoma

## EAGVRLN
  Cell Line (NCI-60 cell line the peptide and its motif are associated with): OVCAR-4 Ovarian

## AVLVAGG
  Cell Line with which the peptide (and its tripeptide motif) is associated: CCRF-CEM Leukemia

## FAGRAPR
  Cell Line the peptide is associated with (peptide recovered from phage library selection on this NCI-60 cell line): ACHN Renal

## PTGEGLR
  Cell Line (NCI-60 cell line the peptide and its motif are associated with): SK-MEL-5 Melanoma

## GRYSLRS
  Cell Line with which the peptide (and its tripeptide motif) is associated: RPMI-8226-Leukemia

## LRGGLVS
  Cell Line with which the peptide (and its tripeptide motif) is associated: EKVX-Lung

## AGGIWIR
  Cell Line (NCI-60 cell line the peptide is associated with): KM-12C Colon

## LRSDPRS
  Cell Line (NCI-60 cell line the peptide is associated with): HT-29 Colon

## GGRAIGA
  Cell Line with which the peptide (and its tripeptide motif) is associated: Hop-92-Lung

## LTGGLVF
  Cell Line (NCI-60 cell line the peptide and its motif are associated with): DU-145 Prostate

## VGLGNSA
  Cell Line (NCI-60 cell line the peptide and its motif are associated with): SK-MEL-2 Melanoma

## AGLPHRF
  Cell Line the peptide is associated with (peptide recovered from phage library selection on this NCI-60 cell line): UO31 Renal

## ADIGAGG
  Cell Line with which the peptide (and its tripeptide motif) is associated: HL-60-Leukemia

## HSLVSQP
  Cell Line (NCI-60 cell line the peptide is associated with): SNB-19 CNS; also recorded: SF-539 CNS

## LGVRASP
  Cell Line the peptide is associated with (peptide recovered from phage library selection on this NCI-60 cell line): BT-549 Breast

## YLGLGGL
  Cell Line (NCI-60 cell line the peptide and its motif are associated with): DU-145 Prostate

## GRGVGTD
  Cell Line (NCI-60 cell line the peptide is associated with): HT-29 Colon

## FDRGSLT
  Cell Line (NCI-60 cell line the peptide is associated with): SF-295 CNS

## HGRLAFG
  Cell Line (NCI-60 cell line the peptide and its motif are associated with): SK-MEL-28 Melanoma

## GRLYLGI
  Cell Line (NCI-60 cell line the peptide is associated with): SF-295 CNS

## ANGVLEL
  Cell Line with which the peptide (and its tripeptide motif) is associated: Molt-4-Leukemia

## ADGRLRY
  Cell Line (NCI-60 cell line the peptide is associated with): KM-12C Colon

## PNRRVSA
  Cell Line with which the peptide (and its tripeptide motif) is associated: Hop-92-Lung

## DWWAGVR
  Cell Line with which the peptide (and its tripeptide motif) is associated: CCRF-CEM Leukemia

## LVPLVSG
  Cell Line (NCI-60 cell line the peptide and its motif are associated with): SK-OV-3-3 Ovarian

## MVLRGSY
  Cell Line (NCI-60 cell line the peptide is associated with): SNB-75 CNS

## GGRSWVN
  Cell Line with which the peptide (and its tripeptide motif) is associated: RPMI-8226-Leukemia

## GPFRAVP
  Cell Line (NCI-60 cell line the peptide is associated with): COLO-205-Colon

## RAVGRQL
  Cell Line (NCI-60 cell line the peptide and its motif are associated with): OVCAR-5 Ovarian

## VGRLQTT
  Cell Line (NCI-60 cell line the peptide and its motif are associated with): UACC62 Melanoma

## PAILRVR
  Cell Line the peptide is associated with (peptide recovered from phage library selection on this NCI-60 cell line): UO31 Renal

## NSFGLRY
  Cell Line (NCI-60 cell line the peptide is associated with): COLO-205-Colon

## IHRGVWG
  Cell Line (NCI-60 cell line the peptide and its motif are associated with): 786-0 Renal

## FVGRVGE
  Cell Line the peptide is associated with (peptide recovered from phage library selection on this NCI-60 cell line): A498 Renal

## MLGRGSV
  Cell Line the peptide is associated with (peptide recovered from phage library selection on this NCI-60 cell line): SN12C Renal

## AARAVWG
  Cell Line the peptide is associated with (peptide recovered from phage library selection on this NCI-60 cell line): RXF393 Renal

## ARGRDEG
  Cell Line the peptide is associated with (peptide recovered from phage library selection on this NCI-60 cell line): UO31 Renal

## RDGAVNL
  Cell Line (NCI-60 cell line the peptide and its motif are associated with): UACC 257 Melanoma

## VLLSAGL
  Cell Line the peptide is associated with (peptide recovered from phage library selection on this NCI-60 cell line): RXF393 Renal

## ARRGLGL
  Cell Line (NCI-60 cell line the peptide is associated with): SNB-75 CNS

## LVGSSRV
  Cell Line (NCI-60 cell line the peptide and its motif are associated with): SK-OV-3-3 Ovarian

## RGVGAKA
  Cell Line the peptide is associated with (peptide recovered from phage library selection on this NCI-60 cell line): NCI/ADR-RES Breast

## GVGGGAG
  Cell Line the peptide is associated with (peptide recovered from phage library selection on this NCI-60 cell line): MDA-MB-435-Breast

## VYGWGGS
  Cell Line (NCI-60 cell line the peptide and its motif are associated with): DU-145 Prostate

## RGSRTGP
  Cell Line (NCI-60 cell line the peptide is associated with): U251 CNS

## DYVGAGT
  Cell Line (NCI-60 cell line the peptide and its motif are associated with): DU-145 Prostate

## RASCALT
  Cell Line with which the peptide (and its tripeptide motif) is associated: HL-60-Leukemia

## NKGGLRQ
  Cell Line (NCI-60 cell line the peptide and its motif are associated with): SK-OV-3-3 Ovarian

## GLVGFTG
  Cell Line with which the peptide (and its tripeptide motif) is associated: Hop-62-Lung

## LCDAGPS
  Cell Line (NCI-60 cell line the peptide is associated with): HCT-116 Colon

## SRLSYRS
  Cell Line with which the peptide (and its tripeptide motif) is associated: A549-Lung

## TVGSGCL
  Cell Line (NCI-60 cell line the peptide is associated with): HCT-116 Colon
